Reference: US11384121B2, “Creation of peptide-based anti-tumor agent” (National University Corporation Hokkaido University, priority 2018, dated 2022)

How the values were obtained:
[1] = tested on: MIA PaCa-2 cell line transplanted; assay: Tumor-cell-transplanted animal model assay 1, size of transplanted tumor, MIA PaCa-2; type: in vivo, BALB/c nude mice; conditions: MIA PaCa-2 (FIG. 2-1)
Method: (§1) Anti-asialo GM1 (rabbit) (Wako Pure Chemical Industries, Ltd.) was intraperitoneally administered to BALB/c nude mice, and the mice were grown at room temperature for 2 hours. To the back of each BALB/c nude mouse, 2×10^6 test cells were subcutaneously injected for transplantation. Compound 11 or compound 12 in a dose of 50 ng or 500 ng or in a dose of 40 ng or 400 ng was intraperitoneally administered to each mouse on each day, from the day following the date of transplantation for mice with the SW620 cell line transplanted, from the day 1 week after the date of transplantation for mice with the MIA PaCa-2 cell line transplanted, and the growth of a tumor mass in each transplantation site was observed. No compound was administered to a control group, and echinomycin in a dose of 40 ng or 400 ng was intraperitoneally administered to each mouse in groups with administration of echinomycin on each day.
(§2) Each of the control group, groups with administration of echinomycin, groups with administration of compound 11, and groups with administration of compound 12 was n=5.

[2] = Tumor-cell-transplanted animal model assay 2, body weight variation; type: in vivo, BALB/c nude mice; conditions: MIA PaCa-2 transplanted mice
Method: Anti-asialo GM1 (rabbit) (Wako Pure Chemical Industries, Ltd.) was intraperitoneally administered to BALB/c nude mice, and the mice were grown at room temperature for 2 hours. To the back of each BALB/c nude mouse, 2×10^6 cells of the MIA PaCa-2 cell line were subcutaneously injected for transplantation. Compound 11 or compound 12 in a dose of 500 ng was intraperitoneally administered to each mouse on each day from the day following the date of transplantation, and body weight was measured on each day (n=5 for each group). No compound was administered to a control group, and echinomycin in a dose of 400 ng was intraperitoneally administered to each mouse in a group with administration of echinomycin on each day, and body weight was measured at the date of slaughter (n=5 for each group).

[3] = tested on: SW620 cell line transplanted; assay: Tumor-cell-transplanted animal model assay 1, size of transplanted tumor, SW620; type: in vivo, BALB/c nude mice
Method: as §1, §2

SW620 cell line [4] = assay: SRB assay, colorectal cancer cell (SW620 cell) line; type: cell-based
Method: (§3) Used for cells were an SW620 cell line (ATCC), which was a colorectal cancer cell line, and an MIA PaCa-2 cell line (ATCC) and a Suit2 cell line (Health Science Research Resources Bank), which were a pancreatic cancer cell line.
(§4) Culture of the MIA PaCa-2 cell line and the Suit2 cell line was performed by using a DMEM with 10% FBS, 2 mM L-glutamine, 50 U/mL penicillin, and 50 μg/mL streptomycin. Culture of the SW620 cell line was performed by using RPMI1640 with 10% FBS, 2 mM L-glutamine, 50 U/mL penicillin, and 50 μg/mL streptomycin.
(§5) Test cells aliquoted into a 96-well plate at 1.0×10^4 cells/well were cultured for 24 hours, and compound 11 or compound 12 was then added to the culture solution to reach a final concentration of 1 ng/mL, 10 ng/mL, 100 ng/mL, or 1000 ng/mL to initiate incubation, and the plate was taken out after 24 hours, 48 hours, 72 hours, and 96 hours (n=5 for each case).
(§6) To each well of the plate taken out, 100 μL of 10% trichloroacetic acid (TCA) was added, the plate was left to stand at 4° C. for 1 hour, and washed four times with pure water. […] Cell density after each incubation time was determined by measuring OD at 510 nm for stained cells lysed in 10 mM Tris buffer solution. […]

SW620 cell line [5] = assay: Cell death inducibility, TUNEL method; type: cell-based; conditions: 10 ng/mL, 48 hours
Method: The SW620 cell line aliquoted into a 4-well glass chamber slide at 5.0×10^4 cells/well was cultured for 24 hours, and compound 12 was then added to the culture solution to reach a final concentration of 10 ng/mL to initiate incubation, and the slide was taken out after 48 hours.
By using a commercially available cell death detection kit utilizing a TUNEL (TdT-mediated dUTP nick-end labeling) method (In Situ Cell Death Detection Kit and TMR red (Roche Diagnostic)) in accordance with a protocol provided by the manufacturer, TUNEL-stained cells (i.e., cells that underwent cell death) were detected and counted. No compound was added for a control group, and echinomycin was added for a group with administration of echinomycin so that the final concentration of echinomycin reached 10 ng/mL, and the above-described operations were performed.
(§7) Each of the control group, group with administration of echinomycin, and group with administration of compound 12 was n=4.

activated caspase-3 = assay: Detection of activated caspase-3 (Western blotting); type: cell-based; conditions: 10 ng/mL, 48 hours; SW620; actin as endogenous control
Method: The SW620 cell line aliquoted into a 6-well plate at 2.0×10^3 cells/well was cultured for 24 hours, and compound 12 was then added to the culture solution to reach a final concentration of 10 ng/mL to initiate incubation, and the plate was taken out after 48 hours.
Proteins were collected by using a commercially available protein collection kit (mammalian cell extraction kit (BioVision, Inc.)) in accordance with a protocol provided by the manufacturer, and activated caspase-3 was quantified through Western blotting with a specific antibody to cleaved caspase-3 (Cell Signaling Technology, Inc.). Actin was used as an endogenous control. No compound was added for a control group, and echinomycin was added for a group with administration of echinomycin so that the final concentration of echinomycin reached 10 ng/mL, and the above-described operations were performed.
as §7

MIA PaCa-2 cell line = assay: SRB assay, pancreatic cancer cell (MIA PaCa-2 cell) line; type: cell-based
Method: as §3, §4, §5, §6

Suit2 cell line = assay: SRB assay, pancreatic cancer cell (SuiT-2 cell) line; type: cell-based; conditions: 100 ng/mL or more
Method: as §3, §4, §5, §6

[6] = Non Patent Literature 1; clinical development abandoned; cited from earlier work
HIF-1a = conditions: Non Patent Literature 2; cited from earlier work
[7] = 500 ng intraperitoneally each day

| SMILES | size of transplanted tumor [1, 7] | tumor size reduction compared with echinomycin ([1]; 500 ng versus 400 ng of echinomycin) | body weight on day 28 of administration [2, 7] | tumor size reduction compared with echinomycin ([3]; 40 ng versus 400 ng of echinomycin, cell line not given) | size of transplanted tumor ([3]; any of the loadings, intraperitoneally each day, SW620 (FIG. 2-2)) | growth-suppressing activity at low concentration compared with echinomycin (SW620 cell line [4]; 10 ng/mL) | absorbance (cell density, OD at 510 nm) versus control; activity to suppress the growth of cancer cells (SW620 cell line [4]; 100 ng/mL or more) | size of transplanted tumor ([1]; any of the loadings, intraperitoneally each day) | number of cells that underwent cell death (TUNEL-stained cells) (SW620 cell line [5]) | amount of activated caspase-3, relative to control group (100±45) (activated caspase-3) | growth-suppressing activity at low concentration compared with echinomycin (MIA PaCa-2 cell line; 10 ng/mL) | absorbance (cell density, OD at 510 nm) versus control; activity to suppress the growth of cancer cells (MIA PaCa-2 cell line; 100 ng/mL or more) | absorbance (cell density, OD at 510 nm) versus control; activity to suppress the growth of cancer cells (Suit2 cell line) | toxicity in phase 2 clinical trial [6] | HIF-1a inhibitory activity (HIF-1a) | body weight on day 28 of administration ([2]; 400 ng intraperitoneally each day) |
| --- | --- | --- | --- | --- | --- | --- | --- | --- | --- | --- | --- | --- | --- | --- | --- | --- |
| CC(C)[C@H]1C(=O)OC[C@@H](NC(=O)c2cnc3ccccc3n2)C(=O)N[C@@H](C)C(=O)N(C)[C@H]2CSC[C@@H](C(=O)N1C)N(C)C(=O)[C@H](C)NC(=O)[C@H](NC(=O)c1cnc3ccccc3n1)COC(=O)[C@H](C(C)C)N(C)C2=O [compound 11] | Reduction in the size of transplanted tumor | comparable with that provided by administration of 400 ng of echinomycin | Large reduction in body weight was not found |  |  |  |  |  |  |  |  |  |  |  |  |  |
| CC(C)[C@H]1C(=O)OC[C@@H](NC(=O)c2nc3ccccc3cc2O)C(=O)N[C@@H](C)C(=O)N(C)[C@H]2CSC[C@@H](C(=O)N1C)N(C)C(=O)[C@H](C)NC(=O)[C@H](NC(=O)c1nc3ccccc3cc1O)COC(=O)[C@H](C(C)C)N(C)C2=O [compound 12] |  |  | Large reduction in body weight was not found | comparable with that of administration of 400 ng of echinomycin | reduction in the size of transplanted tumor | higher than that of echinomycin | significant difference in absorbance | reduction in the size of transplanted tumor | significantly larger than those for the control group and the group with administration of echinomycin | 1107±273 | higher than that of echinomycin | significant difference in absorbance | significant difference in absorbance |  |  |  |
| CS[C@H]1SC[C@H]2C(=O)N(C)[C@@H](C(C)C)C(=O)OC[C@@H](NC(=O)c3cnc4ccccc4n3)C(=O)N[C@@H](C)C(=O)N(C)[C@@H]1C(=O)N(C)[C@@H](C(C)C)C(=O)OC[C@@H](NC(=O)c1cnc3ccccc3n1)C(=O)N[C@@H](C)C(=O)N2C [echinomycin, reference compound] |  |  |  |  |  |  |  |  |  | 362±176 |  |  |  | toxicity | HIF-1a inhibitory activity | Large reduction in body weight was not found |
